{
  "source": "patent US11331369B2",
  "about": "“Endoparasitic depsipeptides” (Zoetis Services LLC, priority 2017, dated 2022)",
  "data": [
    {"test_system": "microfilariae of Dirofilaria immitis", "experiment": "Dirofilaria immitis, Microfilaria (DiMF) In vitro Assay", "type": "cell-based", "details": "72 h, read-out: DiMF Minimum Effective Dose (MED), approximately 72 hours incubation, microfilariae assessed for survival or paralysis", "units": {"minimal effective concentration": "µM"}, "values": [
      {"smiles": "CC(C)C[C@H]1C(=O)O[C@H](Cc2ccc(Cn3ccc(OC(F)F)n3)cc2)C(=O)N(C)[C@@H](CC(C)C)C(=O)O[C@H](C)C(=O)N(C)[C@@H](CC(C)C)C(=O)O[C@H](Cc2ccc(Cn3ccc(OC(F)F)n3)cc2)C(=O)N(C)[C@@H](CC(C)C)C(=O)O[C@H](C)C(=O)N1C", "note": "[Example 1b-156, (3S,6R,9S,12R,15S,18R,21S,24R)-6,18-bis(4-((3-(difluoromethoxy)-1H-pyrazol-1-yl)methyl)benzyl)-3,9,15,21-tetraisobutyl-4,10,12,16,22,24-hexamethyl-1,7,13,19-tetraoxa-4,10,16,22-tetraazacyclotetracosan-2,5,8,11,14,17,20,23-octaone]", "minimal effective concentration": "0.01 to 0.1"},
      {"smiles": "CCOc1cc(CC)nn1Cc1ccc(C[C@H]2OC(=O)[C@H](CC(C)C)N(C)C(=O)[C@@H](C)OC(=O)[C@H](CC(C)C)N(C)C(=O)[C@@H](Cc3ccc(Cn4nc(CC)cc4OCC)cc3)OC(=O)[C@H](CC(C)C)N(C)C(=O)[C@@H](C)OC(=O)[C@H](CC(C)C)N(C)C2=O)cc1", "note": "[Example 1b-169, (3S,6R,9S,12R,15S,18R,21S,24R)-6,18-bis(4-((5-ethoxy-3-ethyl-1H-pyrazol-1-yl)methyl)benzyl)-3,9,15,21-tetraisobutyl-4,10,12,16,22,24-hexamethyl-1,7,13,19-tetraoxa-4,10,16,22-tetraazacyclotetracosan-2,5,8,11,14,17,20,23-octaone]", "minimal effective concentration": "0.01 to 0.1"},
      {"smiles": "CC(C)C[C@H]1C(=O)O[C@H](Cc2ccc(Cn3ncc4cccnc43)cc2)C(=O)N(C)[C@@H](CC(C)C)C(=O)O[C@H](C)C(=O)N(C)[C@@H](CC(C)C)C(=O)O[C@H](Cc2ccc(Cn3ncc4cccnc43)cc2)C(=O)N(C)[C@@H](CC(C)C)C(=O)O[C@H](C)C(=O)N1C", "note": "[Example 9-49, (3S,6R,9S,12R,15S,18R,21S,24R)-6,18-bis(4-((1H-pyrazolo[3,4-b]pyridin-1-yl)methyl)benzyl)-3,9,15,21-tetraisobutyl-4,10,12,16,22,24-hexamethyl-1,7,13,19-tetraoxa-4,10,16,22-tetraazacyclotetracosan-2,5,8,11,14,17,20,23-octaone]", "minimal effective concentration": "0.001 to 0.01"},
      {"smiles": "CCc1nccn1Cc1ccc(C[C@H]2OC(=O)[C@H](CC(C)C)N(C)C(=O)[C@@H](C)OC(=O)[C@H](CC(C)C)N(C)C(=O)[C@@H](Cc3cccc(Cn4ccnc4CC)c3)OC(=O)[C@H](CC(C)C)N(C)C(=O)[C@@H](C)OC(=O)[C@H](CC(C)C)N(C)C2=O)cc1", "note": "[Example 7-4, (3S,6R,9S,12R,15S,18R,21S,24R)-6-[[3-[(2-ethylimidazol-1-yl)methyl]phenyl]methyl]-18-[[4-[(2-ethylimidazol-1-yl)methyl]phenyl]methyl]-3,9,15,21-tetraisobutyl-4,10,12,16,22,24-hexamethyl-1,7,13,19-tetraoxa-4,10,16,22-tetrazacyclotetracosane-2,5,8,11,14,17,20,23-octaone]", "minimal effective concentration": "0.01 to 0.1"},
      {"smiles": "CC(C)C[C@H]1C(=O)O[C@H](Cc2ccc(CN3CC(CO)OC3=O)cc2)C(=O)N(C)[C@@H](CC(C)C)C(=O)O[C@H](C)C(=O)N(C)[C@@H](CC(C)C)C(=O)O[C@H](Cc2ccccc2)C(=O)N(C)[C@@H](CC(C)C)C(=O)O[C@H](C)C(=O)N1C", "note": "(stereo partly drawn) [Example 10-24, (3S,6R,9S,12R,15S,18R,21S,24R)-6-benzyl-18-(4-((5-(hydroxymethyl)-2-oxooxazolidin-3-yl)methyl)benzyl)-3,9,15,21-tetraisobutyl-4,10,12,16,22,24-hexamethyl-1,7,13,19-tetraoxa-4,10,16,22-tetraazacyclotetracosan-2,5,8,11,14,17,20,23-octaone]", "minimal effective concentration": "0.01 to 0.1"},
      {"smiles": "CC(C)C[C@H]1C(=O)O[C@H](Cc2ccc(Cn3cc(-c4ccccn4)cn3)cc2)C(=O)N(C)[C@@H](CC(C)C)C(=O)O[C@H](C)C(=O)N(C)[C@@H](CC(C)C)C(=O)O[C@H](Cc2ccc(Cn3cc(-c4ccccn4)cn3)cc2)C(=O)N(C)[C@@H](CC(C)C)C(=O)O[C@H](C)C(=O)N1C", "note": "[Example 1b-71, (3S,6R,9S,12R,15S,18R,21S,24R)-3,9,15,21-tetraisobutyl-4,6,10,16,18,22-hexamethyl-12,24-bis(4-((4-(pyridin-2-yl)-1H-pyrazol-1-yl)methyl)benzyl)-1,7,13,19-tetraoxa-4,10,16,22-tetraazacyclotetracosan-2,5,8,11,14,17,20,23-octaone]", "minimal effective concentration": "0.01 to 0.1"},
      {"smiles": "Cc1nn(Cc2ccc(C[C@H]3OC(=O)[C@H](CC(C)C)N(C)C(=O)[C@@H](C)OC(=O)[C@H](CC(C)C)N(C)C(=O)[C@@H](Cc4ccccc4)OC(=O)[C@H](CC(C)C)N(C)C(=O)[C@@H](C)OC(=O)[C@H](CC(C)C)N(C)C3=O)cc2)c(C)c1S(=O)(=O)N1CCCCC1", "note": "[Example 2-60, (3S,6R,9S,12R,15S,18R,21S,24R)-6-benzyl-18-(4-((3,5-dimethyl-4-(piperidin-1-ylsulfonyl)-1H-pyrazol-1-yl)methyl)benzyl)-3,9,15,21-tetraisobutyl-4,10,12,16,22,24-hexamethyl-1,7,13,19-tetraoxa-4,10,16,22-tetraazacyclotetracosan-2,5,8,11,14,17,20,23-octaone]", "minimal effective concentration": "0.01 to 0.1"},
      {"smiles": "CC(C)C[C@H]1C(=O)O[C@H](Cc2ccc(Cn3ccnc3CF)cc2)C(=O)N(C)[C@@H](CC(C)C)C(=O)O[C@H](C)C(=O)N(C)[C@@H](CC(C)C)C(=O)O[C@H](Cc2ccccc2)C(=O)N(C)[C@@H](CC(C)C)C(=O)O[C@H](C)C(=O)N1C", "note": "[Example 8-14, (3S,6R,9S,12R,15S,18R,21S,24R)-6-benzyl-18-(4-((2-(fluoromethyl)-1H-imidazol-1-yl)methyl)benzyl)-3,9,15,21-tetraisobutyl-4,10,12,16,22,24-hexamethyl-1,7,13,19-tetraoxa-4,10,16,22-tetraazacyclotetracosan-2,5,8,11,14,17,20,23-octaone]", "minimal effective concentration": "0.01 to 0.1"},
      {"smiles": "CC(C)C[C@H]1C(=O)O[C@H](Cc2ccc(Cn3cc(S(=O)(=O)N4CCCCC4)cn3)cc2)C(=O)N(C)[C@@H](CC(C)C)C(=O)O[C@H](C)C(=O)N(C)[C@@H](CC(C)C)C(=O)O[C@H](Cc2ccccc2)C(=O)N(C)[C@@H](CC(C)C)C(=O)O[C@H](C)C(=O)N1C", "note": "[Example 2-21, (3S,6R,9S,12R,15S,18R,21S,24R)-6-benzyl-3,9,15,21-tetraisobutyl-4,10,12,16,22,24-hexamethyl-18-(4-((4-(piperidin-1-ylsulfonyl)-1H-pyrazol-1-yl)methyl)benzyl)-1,7,13,19-tetraoxa-4,10,16,22-tetraazacyclotetracosan-2,5,8,11,14,17,20,23-octaone]", "minimal effective concentration": "0.01 to 0.1"},
      {"smiles": "CC(C)C[C@H]1C(=O)O[C@H](Cc2cccc(Cn3cc(F)cn3)c2)C(=O)N(C)[C@@H](CC(C)C)C(=O)O[C@H](C)C(=O)N(C)[C@@H](CC(C)C)C(=O)O[C@H](Cc2ccccc2)C(=O)N(C)[C@@H](CC(C)C)C(=O)O[C@H](C)C(=O)N1C", "note": "[Example 5-1, (3S,6R,9S,12R,15S,18R,21S,24R)-6-benzyl-18-(3-((4-fluoro-1H-pyrazol-1-yl)methyl)benzyl)-3,9,15,21-tetraisobutyl-4,10,12,16,22,24-hexamethyl-1,7,13,19-tetraoxa-4,10,16,22-tetraazacyclotetracosan-2,5,8,11,14,17,20,23-octaone]", "minimal effective concentration": "0.001 to 0.01"},
      {"smiles": "CC(C)C[C@H]1C(=O)O[C@H](Cc2ccc(Cn3ccc(C4CC4)n3)cc2)C(=O)N(C)[C@@H](CC(C)C)C(=O)O[C@H](C)C(=O)N(C)[C@@H](CC(C)C)C(=O)O[C@H](Cc2ccc(Cn3ccc(C4CC4)n3)cc2)C(=O)N(C)[C@@H](CC(C)C)C(=O)O[C@H](C)C(=O)N1C", "note": "[Example 1b-67, (3S,6R,9S,12R,15S,18R,21S,24R)-6,18-bis(4-((3-cyclopropyl-1H-pyrazol-1-yl)methyl)benzyl)-3,9,15,21-tetraisobutyl-4,10,12,16,22,24-hexamethyl-1,7,13,19-tetraoxa-4,10,16,22-tetraazacyclotetracosan-2,5,8,11,14,17,20,23-octaone]", "minimal effective concentration": "0.01 to 0.1"},
      {"smiles": "CC(C)C[C@H]1C(=O)O[C@H](Cc2ccc(Cn3nccc3C3(N)CC3)cc2)C(=O)N(C)[C@@H](CC(C)C)C(=O)O[C@H](C)C(=O)N(C)[C@@H](CC(C)C)C(=O)O[C@H](Cc2ccc(Cn3nccc3C3(N)CC3)cc2)C(=O)N(C)[C@@H](CC(C)C)C(=O)O[C@H](C)C(=O)N1C", "note": "[Example 1b-218, (3S,6R,9S,12R,15S,18R,21S,24R)-6,18-bis(4-((5-(1-aminocyclopropyl)-1H-pyrazol-1-yl)methyl)benzyl)-3,9,15,21-tetraisobutyl-4,10,12,16,22,24-hexamethyl-1,7,13,19-tetraoxa-4,10,16,22-tetraazacyclotetracosan-2,5,8,11,14,17,20,23-octaone]", "minimal effective concentration": "0.01 to 0.1"},
      {"smiles": "Cc1cnn(Cc2ccc(C[C@H]3OC(=O)[C@H](CC(C)C)N(C)C(=O)[C@@H](C)OC(=O)[C@H](CC(C)C)N(C)C(=O)[C@@H](Cc4ccc(Cn5nc(C)c(S(=O)(=O)N6CCCC6)c5C)cc4)OC(=O)[C@H](CC(C)C)N(C)C(=O)[C@@H](C)OC(=O)[C@H](CC(C)C)N(C)C3=O)cc2)c1", "note": "[Example 1a-23, (3S,6R,9S,12R,15S,18R,21S,24R)-6-(4-((3,5-dimethyl-4-(pyrrolidin-1-ylsulfonyl)-1H-pyrazol-1-yl)methyl)benzyl)-3,9,15,21-tetraisobutyl-4,10,12,16,22,24-hexamethyl-18-(4-((4-methyl-1H-pyrazol-1-yl)methyl)benzyl)-1,7,13,19-tetraoxa-4,10,16,22-tetraazacyclotetracosan-2,5,8,11,14,17,20,23-octaone]", "minimal effective concentration": "0.01 to 0.1"},
      {"smiles": "CC(C)C[C@H]1C(=O)O[C@H](Cc2ccc(CN3CCCOC3=O)cc2)C(=O)N(C)[C@@H](CC(C)C)C(=O)O[C@H](C)C(=O)N(C)[C@@H](CC(C)C)C(=O)O[C@H](Cc2ccccc2)C(=O)N(C)[C@@H](CC(C)C)C(=O)O[C@H](C)C(=O)N1C", "note": "[Example 10-25, (3S,6R,9S,12R,15S,18R,21S,24R)-6-benzyl-3,9,15,21-tetraisobutyl-4,10,12,16,22,24-hexamethyl-18-(4-((2-oxo-1,3-oxazinan-3-yl)methyl)benzyl)-1,7,13,19-tetraoxa-4,10,16,22-tetraazacyclotetracosan-2,5,8,11,14,17,20,23-octaone]", "minimal effective concentration": "0.01 to 0.1"}
    ]}
  ]
}
